Laboratory results published in patent publication US20230085307A1, “PYRIDAZINONE COMPOUND AND HERBICIDE” (NISSAN CHEMICAL CORPORATION, priority 2019, published 2023).

Key:
[1] = test system: barnyard grass; assay: Test Example 3: herbicidal effect by foliage application, Wagner pot (Table 18, symbol H); type: in vivo, barnyard grass (Echinochloa crus-galli); settings: 320 g/ha
Procedure, shortened: (§1)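 Plants were sown in alluvial soil held under 0.1–0.5 cm standing water and grown 14 days in a greenhouse at 25–30 °C. An emulsifiable formulation, water-diluted to the set dose, was then sprayed onto the foliage, and effects were scored three weeks later using previously defined criteria.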

[2] = test system: Chinese sprangletop; assay: Test Example 3: herbicidal effect by foliage application, Wagner pot (Table 18, symbol D); type: in vivo, chinese sprangletop (Leptochloa chinensis); settings: 320 g/ha
Procedure, shortened: as §1

[3] = test system: rice flat sedge; assay: Test Example 3: herbicidal effect by foliage application, Wagner pot (Table 18, symbol E); type: in vivo, rice flat sedge (Cyperus iria); settings: 320 g/ha
Procedure, shortened: as §1

[4] = test system: southern crabgrass; assay: Test Example 4: herbicidal effect by soil treatment (Table 19, symbol F); type: in vivo, southern crabgrass (Digitaria ciliaris); settings: amount of applied herbicide 320 g/ha
Procedure, shortened: (§2)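 Three weeks of greenhouse growth at 25° C. to 30° C. followed a uniform surface spray of water-diluted emulsion at a predetermined herbicide amount. Seeds had been sown beforehand under about 1.5 cm of sterilized diluvial soil. Grading followed criteria set out in an earlier test.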

[5] = test system: green foxtail; assay: Test Example 4: herbicidal effect by soil treatment (Table 19, symbol G); type: in vivo, green foxtail (Setaria viridis); settings: amount of applied herbicide 320 g/ha
Procedure, shortened: as §2

[6] = test system: barnyard grass; assay: Test Example 4: herbicidal effect by soil treatment (Table 19, symbol H); type: in vivo, barnyard grass (Echinochloa crus-galli); settings: amount of applied herbicide 320 g/ha
Text: (§3) [Test Example 4] Herbicidal Effect Test by Soil Treatment
(§4) Sterilized diluvial soil was placed in a plastic box having a length of 21 cm, a width of 13 cm, and a depth of 7 cm. The seeds of each of southern crabgrass, green foxtail, barnyard grass, wild oat, blackgrass, Italian ryegrass, windgrass, velvetleaf, redroot pigweed, lambsquarters, chickweed, false cleavers, persian speedwell, corn, soybean, rice, wheat, beet, and rapeseed were sowed in a spot-like manner and covered with the soil having a thickness of about 1.5 cm. Subsequently, the emulsion agent of the compound of the present invention prepared according to Formulation Example 2 was diluted with water so as to achieve a predetermined herbicide amount, and the diluted emulsion agent was uniformly applied to the surface of the soil with a small-sized spray. The plastic box was placed in a greenhouse at 25° C. to 30° C. for growth of the plants. Three weeks after the herbicide application, the effect of the herbicide on each plant was evaluated according to the criteria of Test Example 1.

[7] = test system: wild oat; assay: Test Example 4: herbicidal effect by soil treatment (Table 19, symbol I); type: in vivo, wild oat (Avena fatua); settings: amount of applied herbicide 320 g/ha
Text: as §3, §4

[8] = test system: blackgrass; assay: Test Example 4: herbicidal effect by soil treatment (Table 19, symbol J); type: in vivo, blackgrass (Alopecurus myosuroides); settings: amount of applied herbicide 320 g/ha
Text: as §3, §4

[9] = test system: Italian ryegrass; assay: Test Example 4: herbicidal effect by soil treatment (Table 19, symbol K); type: in vivo, Italian ryegrass (Lolium multiflorum); settings: amount of applied herbicide 320 g/ha
Procedure, shortened: as §2

[10] = test system: windgrass; assay: Test Example 4: herbicidal effect by soil treatment (Table 19, symbol L); type: in vivo, windgrass (Apera spica-venti); settings: amount of applied herbicide 320 g/ha
Text: as §3, §4

[11] = test system: velvetleaf; assay: Test Example 4: herbicidal effect by soil treatment (Table 19, symbol M); type: in vivo, velvetleaf (Abutilon theophrasti); settings: amount of applied herbicide 320 g/ha
Procedure, shortened: as §2

[12] = test system: redroot pigweed; assay: Test Example 4: herbicidal effect by soil treatment (Table 19, symbol N); type: in vivo, redroot pigweed (Amaranthus retroflexus); settings: amount of applied herbicide 320 g/ha
Procedure, shortened: as §2

[13] = test system: lambsquarters; assay: Test Example 4: herbicidal effect by soil treatment (Table 19, symbol O); type: in vivo, lambsquarters (Chenopodium album); settings: amount of applied herbicide 320 g/ha
Procedure, shortened: as §2

[14] = test system: chickweed; assay: Test Example 4: herbicidal effect by soil treatment (Table 19, symbol P); type: in vivo, common chickweed (Stellaria media); settings: amount of applied herbicide 320 g/ha
Text: as §3, §4

[15] = test system: southern crabgrass; assay: Test Example 5: herbicidal effect by foliage application, plastic box (Table 20, symbol F); type: in vivo, southern crabgrass (Digitaria ciliaris); settings: 320 g/ha
Procedure, shortened: (§5)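 Plants sown in sterilized diluvial soil and grown 14 days in a greenhouse at 25° C to 30° C, then sprayed on the foliage with the compound's emulsion diluted in water to a predetermined herbicide amount. Injury to weeds and crops scored three weeks after application on a visual rating scale.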

[16] = test system: green foxtail; assay: Test Example 5: herbicidal effect by foliage application, plastic box (Table 20, symbol G); type: in vivo, green foxtail (Setaria viridis); settings: 320 g/ha
Procedure, shortened: as §5

[17] = test system: barnyard grass; assay: Test Example 5: herbicidal effect by foliage application, plastic box (Table 20, symbol H); type: in vivo, barnyard grass (Echinochloa crus-galli); settings: 320 g/ha
Procedure, shortened: as §5

[18] = test system: wild oat; assay: Test Example 5: herbicidal effect by foliage application, plastic box (Table 20, symbol I); type: in vivo, wild oat (Avena fatua); settings: 320 g/ha
Procedure, shortened: as §5

[19] = test system: blackgrass; assay: Test Example 5: herbicidal effect by foliage application, plastic box (Table 20, symbol J); type: in vivo, blackgrass (Alopecurus myosuroides); settings: 320 g/ha
Procedure, shortened: as §5

[20] = test system: Italian ryegrass; assay: Test Example 5: herbicidal effect by foliage application, plastic box (Table 20, symbol K); type: in vivo, Italian ryegrass (Lolium multiflorum); settings: 320 g/ha
Procedure, shortened: as §5

[21] = test system: windgrass; assay: Test Example 5: herbicidal effect by foliage application, plastic box (Table 20, symbol L); type: in vivo, windgrass (Apera spica-venti); settings: 320 g/ha
Procedure, shortened: as §5

[22] = test system: velvetleaf; assay: Test Example 5: herbicidal effect by foliage application, plastic box (Table 20, symbol M); type: in vivo, velvetleaf (Abutilon theophrasti); settings: 320 g/ha
Procedure, shortened: as §5

[23] = test system: redroot pigweed; assay: Test Example 5: herbicidal effect by foliage application, plastic box (Table 20, symbol N); type: in vivo, redroot pigweed (Amaranthus retroflexus); settings: 320 g/ha
Procedure, shortened: as §5

[24] = test system: lambsquarters; assay: Test Example 5: herbicidal effect by foliage application, plastic box (Table 20, symbol O); type: in vivo, lambsquarters (Chenopodium album); settings: 320 g/ha
Procedure, shortened: as §5

[25] = test system: chickweed; assay: Test Example 5: herbicidal effect by foliage application, plastic box (Table 20, symbol P); type: in vivo, common chickweed (Stellaria media); settings: 320 g/ha
Procedure, shortened: as §5

[26] = test system: persian speedwell; assay: Test Example 5: herbicidal effect by foliage application, plastic box (Table 20, symbol R); type: in vivo, Persian speedwell (Veronica persica); settings: 320 g/ha
Procedure, shortened: as §5

[27] = foliage application, three weeks after application
[28] = foliage application after 14-day growth, evaluated three weeks after application

COc1ccccc1-c1sc2cc(OCCS(C)(=O)=O)ccc2c1-c1c(O)c(C)nn(C)c1=O [3-127]
herbicidal effect on barnyard grass (H) [1]: 4 (Herbicidal rate of 70% or more and less than 90%) | herbicidal effect on Chinese sprangletop (D) [2]: 3 (Herbicidal rate of 40% or more and less than 70%) | herbicidal effect on rice flat sedge (E) [3]: 5 (Herbicidal rate of 90% or more (almost completely withered)) | F: southern crabgrass, herbicidal effect grade [4]: 0 (Herbicidal rate of 5% or less (almost no effect)) | G: green foxtail, herbicidal effect grade [5]: 0 (Herbicidal rate of 5% or less (almost no effect)) | H: barnyard grass, herbicidal effect grade [6]: 0 (Herbicidal rate of 5% or less (almost no effect)) | I: wild oat, herbicidal effect grade [7]: 0 (Herbicidal rate of 5% or less (almost no effect)) | J: blackgrass, herbicidal effect grade [8]: 3 (Herbicidal rate of 40% or more and less than 70%) | K: Italian ryegrass, herbicidal effect grade [9]: 4 (Herbicidal rate of 70% or more and less than 90%) | L: windgrass, herbicidal effect grade [10]: 5 (Herbicidal rate of 90% or more (almost completely withered)) | M: velvetleaf, herbicidal effect grade [11]: 0 (Herbicidal rate of 5% or less (almost no effect)) | N: redroot pigweed, herbicidal effect grade [12]: 0 (Herbicidal rate of 5% or less (almost no effect)) | O: lambsquarters, herbicidal effect grade [13]: 0 (Herbicidal rate of 5% or less (almost no effect)) | P: chickweed, herbicidal effect grade [14]: 1 (Herbicidal rate of 5% or more and less than 20%) | F: southern crabgrass, herbicidal effect grade [15, 27]: 5 (Herbicidal rate of 90% or more (almost completely withered)) | G: green foxtail, herbicidal effect grade [16, 27]: 5 (Herbicidal rate of 90% or more (almost completely withered)) | H: barnyard grass, herbicidal effect grade [17, 27]: 3 (Herbicidal rate of 40% or more and less than 70%) | I: wild oat, herbicidal effect grade [18, 27]: 4 (Herbicidal rate of 70% or more and less than 90%) | J: blackgrass, herbicidal effect grade [19, 27]: 5 (Herbicidal rate of 90% or more (almost completely withered)) | K: Italian ryegrass, herbicidal effect grade [20, 27]: 4 (Herbicidal rate of 70% or more and less than 90%) | L: windgrass, herbicidal effect grade [21, 27]: 5 (Herbicidal rate of 90% or more (almost completely withered)) | M: velvetleaf, herbicidal effect grade [22, 27]: 5 (Herbicidal rate of 90% or more (almost completely withered)) | N: redroot pigweed, herbicidal effect grade [23, 27]: 5 (Herbicidal rate of 90% or more (almost completely withered)) | O: lambsquarters, herbicidal effect grade [24, 27]: 4 (Herbicidal rate of 70% or more and less than 90%) | P: chickweed, herbicidal effect grade [25, 27]: 5 (Herbicidal rate of 90% or more (almost completely withered)) | R: persian speedwell, herbicidal effect grade [26, 27]: 5 (Herbicidal rate of 90% or more (almost completely withered))

CCOc1ccccc1-c1sc2c(Cl)cccc2c1-c1c(O)c(C)nn(C)c1=O [4-025]
herbicidal effect on barnyard grass (H) [1]: 5 (Herbicidal rate of 90% or more (almost completely withered)) | herbicidal effect on Chinese sprangletop (D) [2]: 3 (Herbicidal rate of 40% or more and less than 70%) | herbicidal effect on rice flat sedge (E) [3]: 5 (Herbicidal rate of 90% or more (almost completely withered)) | Herbicidal effect by soil treatment, F: southern crabgrass [4]: 2 (Herbicidal rate of 20% or more and less than 40%) | Herbicidal effect by soil treatment, G: green foxtail [5]: 4 (Herbicidal rate of 70% or more and less than 90%) | Herbicidal effect by soil treatment, H: barnyard grass [6]: 3 (Herbicidal rate of 40% or more and less than 70%) | Herbicidal effect by soil treatment, I: wild oat [7]: 0 (Herbicidal rate of 5% or less (almost no effect)) | Herbicidal effect by soil treatment, J: blackgrass [8]: 1 (Herbicidal rate of 5% or more and less than 20%) | Herbicidal effect by soil treatment, K: Italian ryegrass [9]: 0 (Herbicidal rate of 5% or less (almost no effect)) | Herbicidal effect by soil treatment, L: windgrass [10]: 0 (Herbicidal rate of 5% or less (almost no effect)) | Herbicidal effect by soil treatment, M: velvetleaf [11]: 2 (Herbicidal rate of 20% or more and less than 40%) | Herbicidal effect by soil treatment, N: redroot pigweed [12]: 3 (Herbicidal rate of 40% or more and less than 70%) | Herbicidal effect by soil treatment, O: lambsquarters [13]: 1 (Herbicidal rate of 5% or more and less than 20%) | Herbicidal effect by soil treatment, P: chickweed [14]: 0 (Herbicidal rate of 5% or less (almost no effect)) | herbicidal effect on F: southern crabgrass (evaluation grade 0-5) [15, 28]: 3 (Herbicidal rate of 40% or more and less than 70%) | herbicidal effect on G: green foxtail (evaluation grade 0-5) [16, 28]: 5 (Herbicidal rate of 90% or more (almost completely withered)) | herbicidal effect on H: barnyard grass (evaluation grade 0-5) [17, 28]: 5 (Herbicidal rate of 90% or more (almost completely withered)) | herbicidal effect on I: wild oat (evaluation grade 0-5) [18, 28]: 0 (Herbicidal rate of 5% or less (almost no effect)) | herbicidal effect on J: blackgrass (evaluation grade 0-5) [19, 28]: 4 (Herbicidal rate of 70% or more and less than 90%) | herbicidal effect on K: Italian ryegrass (evaluation grade 0-5) [20, 28]: 3 (Herbicidal rate of 40% or more and less than 70%) | herbicidal effect on L: windgrass (evaluation grade 0-5) [21, 28]: 5 (Herbicidal rate of 90% or more (almost completely withered)) | herbicidal effect on M: velvetleaf (evaluation grade 0-5) [22, 28]: 4 (Herbicidal rate of 70% or more and less than 90%) | herbicidal effect on N: redroot pigweed (evaluation grade 0-5) [23, 28]: 4 (Herbicidal rate of 70% or more and less than 90%) | herbicidal effect on O: lambsquarters (evaluation grade 0-5) [24, 28]: 3 (Herbicidal rate of 40% or more and less than 70%) | herbicidal effect on P: chickweed (evaluation grade 0-5) [25, 28]: 4 (Herbicidal rate of 70% or more and less than 90%) | herbicidal effect on R: persian speedwell (evaluation grade 0-5) [26, 28]: 5 (Herbicidal rate of 90% or more (almost completely withered))
